In patent publication US6355619B1, “Peptide tumor cell growth inhibitors” (Board of Regents, The University of Texas System, priority 1996, dated 2002):
pEC50: −log10 of the molar value. Like-named read-outs stand apart in the source and are kept apart here.

What was measured:
[1] = Hs 294T culture, 100 μM peptide
Experimental: Analysis for the breakdown of Antileukinate in the culture of Hs 294T cells. A total concentration of tritium labeled and unlabeled Antileukinate of 100 μM, was added to the culture of Hs 294T cells. Aliquots of medium were removed at different times and chromatographed on an HPLC Bondapak C18 reversed phase column. The peptides were eluted using a gradient from 0.1% TFA to 80% acetonitrile in 0.1% TFA. One milliliter fractions were collected and measured for their radioactivity using a liquid scintillation counter. The chromatographs show the elution volume of the radioactivity at different times after addition to the cells.
Hs 294T and Hep G2 cells, 2×10^4 cell/well, were cultured in 24 well tissue culture plates for 24 hr. Then the culture media were replaced with media containing tritiated Antileukinate, 0.2 μCi, mixed with 100 μM unlabeled peptide in each well. The cells were then cultured for the indicated periods. The supernatants were collected and stored at −70° C. until use. The breakdown of Antileukinate during the cell culture was analyzed on high performance liquid chromatography (HPLC) using an analytical C18 reversed phase column (Waters Co., New Bedford, Mass.). […] One milliliter fractions were collected and measured for their radioactivity content using a liquid scintillation counter.

RPMI-7951 = settings: 16 hr
Experimental: (§3) The cell lines (4×10^5 cells/well) in RPMI-1640 medium containing 10% fetal bovine serum were incubated with 10 μCi of Na2^51CrO4 (DuPont NEN Co.) for 60 min at 37° C. in a 24 well tissue culture plate. The cells were washed 3 times and then incubated in cell culture medium for 30 min at 37° C. to allow spontaneous lysis of marginally viable cells. […] The cells were cultured for 16 hr at 37° C. and then the radioactivity in the supernatants was counted in a gamma radiation spectrometer. Quadriplicate wells received cell culture medium alone or 2% SDS to determine spontaneous and maximum release, respectively. The percentage lysis was calculated by using the following formula: [formula]

[2] = tested on: fMLP-induced neutrophil chemotaxis; assay: Neutrophil chemotaxis stimulated by fMLP; assay type: cell-based, human; settings: 10 nM fMLP
Experimental: FIG. 7. The Effect of Ac-RRWWCR-NH2 (SEQ ID NO:1) on Neutrophil Chemotaxis. Chemotaxis was performed in the presence of increasing concentration of Ac-RRWWCR-NH2 (SEQ ID NO:1) in both upper and lower chamber. Stimulants added to lower chamber were 10 nM IL-8 (●), 10 nM fMLP (▪), or media alone (◯) as control. Analysis of variance was used for multiple comparison.
Chemotaxis was performed using the leading front method as described by Zigmond and Hirsh (1973). IL-8 or controls were placed in the lower well of a Boyden chamber. A five micron pore size, 100 μm. thick cellulose nitrate filter (Sartorius Filter,. Inc., San Francisco, Calif.) was placed on the surface and the chamber was then assembled. A 200 μl aliquot of the neutrophil preparation (1×10^6 cells/ml) in RPMI-1640 media containing 1% BSA was added to the top of the filter and incubated at 37° C. for 30 min. The filter was then fixed, stained and mounted on a glass microscope slide. The leading front was determined by the position of the leading two cells. The distance that the leading two cells had moved through the filter was measured for six fields on each filter. The measurements were made with four filters for each set of conditions.

Hep G2 = settings: 16 hr
Experimental: as §3

C8161 melanoma cells = assay: Tumor cell growth, C8161; assay type: cell-based
[3] = biological target: T1, GRO binding to human neutrophils (Homo sapiens, UniProt P25025); assay: Binding of radioiodinated GRO/MGSA to human neutrophils; settings: 1 nM GRO
T1 construct: endogenous in cells; host or cells: human neutrophils
T1 sequence (P25025 whole entry): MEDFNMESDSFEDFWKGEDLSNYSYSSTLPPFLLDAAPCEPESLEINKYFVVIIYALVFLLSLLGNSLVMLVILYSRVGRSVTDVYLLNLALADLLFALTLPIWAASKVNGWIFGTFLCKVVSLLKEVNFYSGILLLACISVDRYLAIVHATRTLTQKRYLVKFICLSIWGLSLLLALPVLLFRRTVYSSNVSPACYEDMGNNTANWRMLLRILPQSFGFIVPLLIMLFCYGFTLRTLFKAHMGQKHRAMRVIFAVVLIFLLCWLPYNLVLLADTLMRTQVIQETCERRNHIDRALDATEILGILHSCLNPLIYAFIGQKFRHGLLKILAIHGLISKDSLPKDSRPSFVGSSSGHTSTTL
Experimental: FIG. 10. Ac-RRWWCX (SEQ ID NO:23) Inhibits Binding of GRO and MIP2β to human neutrophils. Radioiodinated MIP2β and GRO/MGSA were mixed with various concentration of Ac-RRWWCR-NH2 and incubated at room temperature for 15 min. Neutrophil suspension (1×10^6 cells in 160 μl PBS containing 0.1% BSA) was added to 40 μl of the mixture and incubated for 90 min on ice. The radioactivity bound to the cells was separated from free radioactivity by centrifugation through an oil layer. The % binding inhibition was calculated as follows: [formula]
MIP2β and GRO/MGSA were radioiodinated using Bolten Hunter reagent. The radioiodinated components were mixed with various concentration of the Ac-RRWWCX-NH2 (SEQ ID NO:23) peptide and incubated at room temperature for 15 min. Neutrophil suspension (1×10^6 cells in 160 μl PBS containing 0.1% BSA) was added to 40 μl of the mixture and incubated for 90 min on ice. The radioactivity bound to the cells was separated from free radioactivity by centrifugation through an oil layer. The bound radioactivity is an indication of bound CXC intercrine peptide. The % binding inhibition in the presence of Ac-RRWWCX-NH2 (SEQ ID NO:23) was calculated as follows: [formula]
where B is bound radioactivity in the presence of the peptide, T is bound radioactivity in the absence of the peptide, and NSP is bound radioactivity in the presence of excess nonlabeled ligand.

[4] = biological target: T2, MIP-1α binding to human neutrophils (Homo sapiens, UniProt P32246); assay: Binding of radiolabeled MIP-1α to human neutrophils
T2 construct: endogenous in cells; host or cells: human neutrophils
T2 sequence (P32246 whole entry): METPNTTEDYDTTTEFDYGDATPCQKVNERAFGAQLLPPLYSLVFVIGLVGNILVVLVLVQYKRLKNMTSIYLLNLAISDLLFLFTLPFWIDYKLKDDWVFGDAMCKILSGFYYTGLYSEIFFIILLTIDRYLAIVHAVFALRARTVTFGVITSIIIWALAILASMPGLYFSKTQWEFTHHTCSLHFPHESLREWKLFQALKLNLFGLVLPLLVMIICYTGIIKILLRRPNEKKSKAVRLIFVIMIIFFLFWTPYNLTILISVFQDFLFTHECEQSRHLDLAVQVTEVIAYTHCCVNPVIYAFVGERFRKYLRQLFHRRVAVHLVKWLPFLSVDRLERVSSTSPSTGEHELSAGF

RPMI-7951 melanoma cells = assay: Cell growth assay, RPMI-7951; assay type: cell-based
Experimental: (§1) FIG. 15B. The effect of Antileukinate on the growth of melanoma cells. Melanoma cell lines and a control liver cancer cell line (2×10^4 cells/well) in 500 μ were cultured in a 24 well tissue culture plate in the presence of various concentrations of Antileukinate for 3 d. The culture media were changed to fresh media containing the same concentration of Antileukinate every 24 hr during the incubation period. After incubation, the cells were collected and the cell number was counted using a hemocytometer. RPMI-7951 cell line. Analysis of variance was used for multiple comparison.
(§2) The cell lines (2×10^4 cells/well) in 500 μl cell culture medium were grown in 24 well tissue culture plates. After the cells adhered to the plate, the supernatants were aspirated and 500 μl of media containing various concentrations of Antileukinate were added to the wells. The cells were cultured for period indicated in the text. The culture media were changed to fresh media every 24 hr. After incubation, the cells were detached with trypsin-EDTA solution (Life Technologies Inc., Gaithersburg, Md., containing 0.05% of trypsin and 0.53 mM of EDTA in Hanks Balanced Salt Solution without Ca^2+ and Mg^2+) and the cell number was counted using a hemocytometer.

Hs 294T melanoma cells = assay: Cell growth assay, Hs 294T; assay type: cell-based, human
Experimental: as §1, with “15A.” for “15B.”, “μl” for “μ”, “Hs 294 T” for “RPMI-7951”
as §2

[5] = tested on: adenocarcinoma from stomach AGS; assay: Tumor cell growth, AGS; assay type: cell-based
IL-8 = IL-8 (Homo sapiens, UniProt P10145); assay: Interaction of the peptide with IL-8; assay type: binding
Sequence of IL-8 (P10145 28-99): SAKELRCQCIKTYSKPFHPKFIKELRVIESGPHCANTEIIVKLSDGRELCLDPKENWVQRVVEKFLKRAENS

For RRWWCR [Ac-RRWWCR-NH2], the “time within which the peptide is substantially eliminated from the culture” value [1] was no more than 24 h, the “decrease of the major radioactivity peak (intact peptide)” value ([1]; after 24 hr) was “more than 85%” and the “% cell lysis” value (RPMI-7951; RPMI-7951, 1 μM peptide) was −0.8 ± 2.2%. The “% cell lysis” value (RPMI-7951; RPMI-7951, 5 μM peptide) was −2.6 ± 3.7%, the “% cell lysis” value (RPMI-7951; RPMI-7951, 20 μM peptide) was −3.4 ± 6.3% and the “% cell lysis” value (RPMI-7951; RPMI-7951, 100 μM peptide) was 6.8 ± 11.1%. The “effect on chemotaxis induced by fMLP” value [2] was “had no effect on chemotaxis”, the “% cell lysis” value (Hep G2; Hep G2, 1 μM peptide) was −2.1 ± 7.5% and the “% cell lysis” value (Hep G2; Hep G2, 5 μM peptide) was −0.8 ± 8.3%. For the same substance, the “% cell lysis” value (Hep G2; Hep G2, 20 μM peptide) was 5.8 ± 8.3%, the “% cell lysis” value (Hep G2; Hep G2, 100 μM peptide) was 0.9 ± 2.9% and the “effect on cell growth” value (C8161 melanoma cells) was “suppresses the growth”. The “effect on binding of GRO to neutrophils” value [3] was “effectively suppress the binding”, the “effect on binding of radiolabeled MIP-1α” value [4] was “did not affect the binding” and the “cell growth at 100 μM peptide” value (RPMI-7951 melanoma cells; RPMI-7951, 100 μM) was “suppressed the cell growth almost completely”. The pEC50 (RPMI-7951 melanoma cells; RPMI-7951, 72 hr, medium changed every 24 hr, read-out: ED50, cell growth inhibition) was 4.51, the “cell growth at 100 μM peptide” value (Hs 294T melanoma cells; 100 μM) was “suppressed the cell growth almost completely” and the “peptide concentration significantly inhibiting growth” value (Hs 294T melanoma cells; 72 hr) was 10 µM. The pEC50 (Hs 294T melanoma cells; 72 hr, medium changed every 24 hr, read-out: ED50, cell growth inhibition) was 4.74, the “effect on cell growth” value [5] was “inhibits growth” and the “interaction of the peptide with IL-8” value (IL-8) was “does not interact with IL-8”.
